From US20240165244A1 (Prelude Therapeutics Incorporated, priority 2022, published 2024)

Experiments:
SMARCA2 = target: T1, SMARCA2 (Homo sapiens, UniProt P51531); experiment: SMARCA2 HiBiT degradation assay in HeLa cells; format: cell-based; settings: 18 hours, highest concentration 10 μM
T1 construct: SMARCA2-HiBiT knock-in Hela monoclonal cell (CS302366); host or cells: HeLa monoclonal cells with heterozygous HiBiT knock-in at the endogenous SMARCA2 locus
In short: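 HeLa cells carrying a heterozygous C-terminal HiBiT knock-in on SMARCA2 were seeded at 2500 cells/well. They were treated with 3-fold dilution series, top concentration 10 μM, for 18 h at 37 °C. Remaining SMARCA2-HiBiT was measured by Nano-Glo HiBiT lytic luminescence after 30-60 min at RT, followed by curve fitting.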

SMARCA4 = target: T2, SMARCA4 (Homo sapiens, UniProt P51532); experiment: SMARCA4 HiBiT degradation assay in HeLa cells; format: cell-based; settings: 18 hours, highest concentration 10 μM
T2 construct: SMARCA4-HiBiT knock-in Hela monoclonal cell (CS3023226); host or cells: HeLa monoclonal cells with heterozygous HiBiT knock-in at the endogenous SMARCA4 locus
In short: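 HeLa monoclonal cells with HiBiT knocked into SMARCA4 were seeded at 2500 cells/well, dosed with compound and incubated 18 hours at 37° C. HiBiT signal reported remaining SMARCA4 protein, and values came from curve fitting.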

T1 sequence (P51531 whole entry): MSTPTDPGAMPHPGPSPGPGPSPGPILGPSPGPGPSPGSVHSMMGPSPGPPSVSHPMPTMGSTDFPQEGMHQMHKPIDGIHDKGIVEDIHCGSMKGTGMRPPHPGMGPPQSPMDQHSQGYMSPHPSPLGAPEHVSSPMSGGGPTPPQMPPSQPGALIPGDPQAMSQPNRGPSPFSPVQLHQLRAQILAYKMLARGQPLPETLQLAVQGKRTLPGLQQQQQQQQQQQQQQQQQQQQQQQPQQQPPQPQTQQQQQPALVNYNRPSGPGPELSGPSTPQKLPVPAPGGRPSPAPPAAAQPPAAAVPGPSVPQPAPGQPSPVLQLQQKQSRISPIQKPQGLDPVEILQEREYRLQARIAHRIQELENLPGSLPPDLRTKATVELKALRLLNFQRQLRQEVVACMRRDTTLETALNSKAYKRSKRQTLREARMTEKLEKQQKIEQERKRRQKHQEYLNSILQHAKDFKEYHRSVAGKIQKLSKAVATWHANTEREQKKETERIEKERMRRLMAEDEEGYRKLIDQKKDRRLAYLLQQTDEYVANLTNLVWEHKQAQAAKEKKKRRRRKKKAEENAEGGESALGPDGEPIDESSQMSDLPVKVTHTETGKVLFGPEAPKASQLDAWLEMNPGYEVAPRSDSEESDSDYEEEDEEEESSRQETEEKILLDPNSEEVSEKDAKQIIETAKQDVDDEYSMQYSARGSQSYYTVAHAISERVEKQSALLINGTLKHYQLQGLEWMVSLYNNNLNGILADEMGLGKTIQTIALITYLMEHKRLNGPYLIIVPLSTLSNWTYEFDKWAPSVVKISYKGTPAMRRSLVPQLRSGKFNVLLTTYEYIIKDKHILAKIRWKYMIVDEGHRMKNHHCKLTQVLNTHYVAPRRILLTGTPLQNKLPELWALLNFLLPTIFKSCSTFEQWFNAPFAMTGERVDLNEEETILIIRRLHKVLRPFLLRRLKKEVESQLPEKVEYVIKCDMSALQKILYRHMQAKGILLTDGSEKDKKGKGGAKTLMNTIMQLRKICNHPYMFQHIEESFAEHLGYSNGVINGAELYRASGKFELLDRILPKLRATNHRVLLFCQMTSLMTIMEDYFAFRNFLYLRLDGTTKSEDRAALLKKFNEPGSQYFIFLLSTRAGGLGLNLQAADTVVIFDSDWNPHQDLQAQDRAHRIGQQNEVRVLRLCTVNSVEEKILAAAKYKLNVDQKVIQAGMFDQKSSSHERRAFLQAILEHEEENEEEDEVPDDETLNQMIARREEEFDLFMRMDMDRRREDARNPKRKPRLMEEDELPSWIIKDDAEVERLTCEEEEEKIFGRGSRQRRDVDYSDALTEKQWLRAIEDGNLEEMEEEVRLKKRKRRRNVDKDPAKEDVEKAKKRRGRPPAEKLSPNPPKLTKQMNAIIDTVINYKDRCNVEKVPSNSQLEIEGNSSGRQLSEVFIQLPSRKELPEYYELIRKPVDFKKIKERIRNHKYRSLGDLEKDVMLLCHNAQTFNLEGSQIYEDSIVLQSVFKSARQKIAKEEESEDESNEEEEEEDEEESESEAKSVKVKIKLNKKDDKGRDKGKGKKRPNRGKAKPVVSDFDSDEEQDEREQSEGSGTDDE
T2 sequence (P51532 whole entry): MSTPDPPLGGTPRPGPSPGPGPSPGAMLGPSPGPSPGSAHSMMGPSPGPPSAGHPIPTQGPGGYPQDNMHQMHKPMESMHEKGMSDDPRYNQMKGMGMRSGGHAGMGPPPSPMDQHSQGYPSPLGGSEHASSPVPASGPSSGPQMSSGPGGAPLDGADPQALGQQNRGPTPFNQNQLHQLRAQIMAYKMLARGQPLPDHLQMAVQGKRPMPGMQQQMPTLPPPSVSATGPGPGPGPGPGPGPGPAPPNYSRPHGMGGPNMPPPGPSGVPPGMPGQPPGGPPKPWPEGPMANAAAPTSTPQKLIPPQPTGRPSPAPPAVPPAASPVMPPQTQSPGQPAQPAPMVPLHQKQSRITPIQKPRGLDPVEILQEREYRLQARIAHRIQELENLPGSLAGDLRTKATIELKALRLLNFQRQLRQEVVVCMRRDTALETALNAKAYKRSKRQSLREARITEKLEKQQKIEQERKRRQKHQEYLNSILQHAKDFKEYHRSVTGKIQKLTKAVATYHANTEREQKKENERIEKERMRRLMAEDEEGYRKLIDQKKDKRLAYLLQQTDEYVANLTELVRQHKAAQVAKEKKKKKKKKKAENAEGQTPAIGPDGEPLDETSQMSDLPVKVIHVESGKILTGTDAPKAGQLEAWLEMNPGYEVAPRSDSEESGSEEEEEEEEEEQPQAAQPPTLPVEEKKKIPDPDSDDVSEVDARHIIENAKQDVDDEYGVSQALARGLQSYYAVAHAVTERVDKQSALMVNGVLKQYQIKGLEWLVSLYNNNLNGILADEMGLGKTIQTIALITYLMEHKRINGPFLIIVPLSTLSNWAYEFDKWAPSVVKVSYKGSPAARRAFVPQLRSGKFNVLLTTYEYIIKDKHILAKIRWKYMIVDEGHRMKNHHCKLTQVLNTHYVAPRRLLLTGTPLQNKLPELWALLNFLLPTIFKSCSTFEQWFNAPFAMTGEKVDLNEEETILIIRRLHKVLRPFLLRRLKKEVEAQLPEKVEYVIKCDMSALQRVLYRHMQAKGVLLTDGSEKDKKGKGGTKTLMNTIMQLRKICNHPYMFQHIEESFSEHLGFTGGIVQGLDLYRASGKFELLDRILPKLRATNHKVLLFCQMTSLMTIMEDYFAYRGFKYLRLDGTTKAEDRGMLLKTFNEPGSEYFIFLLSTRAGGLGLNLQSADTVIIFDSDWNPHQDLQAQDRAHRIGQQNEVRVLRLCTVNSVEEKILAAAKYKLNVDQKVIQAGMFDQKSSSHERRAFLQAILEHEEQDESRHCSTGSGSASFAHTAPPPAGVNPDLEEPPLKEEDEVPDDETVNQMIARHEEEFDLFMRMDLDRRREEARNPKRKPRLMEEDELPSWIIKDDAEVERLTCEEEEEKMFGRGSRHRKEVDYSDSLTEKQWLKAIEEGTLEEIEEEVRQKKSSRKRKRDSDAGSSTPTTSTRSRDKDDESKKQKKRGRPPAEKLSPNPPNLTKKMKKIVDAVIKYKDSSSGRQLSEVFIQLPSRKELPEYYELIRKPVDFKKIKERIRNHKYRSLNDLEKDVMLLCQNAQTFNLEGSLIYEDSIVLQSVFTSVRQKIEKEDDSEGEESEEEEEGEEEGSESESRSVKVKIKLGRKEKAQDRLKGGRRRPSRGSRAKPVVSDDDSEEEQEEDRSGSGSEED

| Structure (SMILES) | DC50 (SMARCA2) [nM] | Dmax (SMARCA2) [%] | DC50 (SMARCA4) [nM] | Dmax (SMARCA4) [%] |
| --- | --- | --- | --- | --- |
| O=C1CCC(N2Cc3ccc(N4CCC(Cn5cc(O[C@@H]6C[C@@H]7CNc8nnc(-c9cc(F)cc(F)c9O)cc8N7C6)cn5)CC4)cc3C2=O)C(=O)N1 (stereo partly drawn) [Example 39, 3-(6-(4-((4-(((6aR,8R)-2-(3,5-difluoro-2-hydroxyphenyl)-5,6,6a,7,8,9-hexahydropyrrolo[1′,2′:4,5]pyrazino[2,3-c]pyridazin-8-yl)oxy)-1H-pyrazol-1-yl)methyl)piperidin-1-yl)-1-oxoisoindolin-2-yl)piperidine-2,6-dione] | > 1000 |  | > 1000 |  |
| Cc1nc(O[C@H]2CN3c4cc(-c5cccc(F)c5O)nnc4NC[C@]3(C(F)F)C2)nc(C)c1CN1CCN(c2ccc3c(c2)C(=O)N(C2CCC(=O)NC2=O)C3)CC1 (stereo partly drawn) [Example 41, 3-(6-(4-((2-(((6aS,8R)-6a-(Difluoromethyl)-2-(3-fluoro-2-hydroxy-phenyl)-5,6,6a,7,8,9-hexahydropyrrolo [1′,2′:4,5]pyrazino[2,3-c]pyridazin-8-yl)oxy)-4,6-dimethylpyrimidin-5-yl)methyl)piperazin-1-yl)-1-oxoisoindolin-2-yl)piperidine-2,6-dione] | < 100 | > 75 | 100 to 1000 | < 50 |
| O=C1CCC(N2Cc3ccc(N4CCN(Cc5cnc(O[C@H]6CN7c8cc(-c9cccc(F)c9O)nnc8NC[C@]7(C(F)F)C6)nc5)CC4)cc3C2=O)C(=O)N1 (stereo partly drawn) [Example 42, 3-(6-(4-((2-(((6aS,8R)-6a-(difluoromethyl)-2-(3-fluoro-2-hydroxyphenyl)-5,6,6a,7,8,9-hexahydropyrrolo [1%2′:4,5]pyrazino[2,3-c]pyridazin-8-yl)oxy)pyrimidin-5-yl)methyl)piperazin-1-yl)-1-oxoisoindolin-2-yl)piperidine-2,6-dione] | < 100 | > 75 | > 1000 | < 50 |
| O=C1CC[C@H](N2Cc3ccc(N4CCN(Cc5ccc(O[C@H]6CN7c8cc(-c9cccc(F)c9O)nnc8NC[C@@]7(C(F)F)C6)nc5)CC4)cc3C2=O)C(=O)N1 [Example 43, (S)-3-(6-(4-((6-(((6aR,8R)-6a-(difluoromethyl)-2-(3-fluoro-2-hydroxyphenyl)-5,6,6a,7,8,9-hexahydropyrrolo[1′,2′:4,5]pyrazino[2,3-c]pyridazin-8-yl)oxy)pyridin-3-yl)methyl)piperazin-1-yl)-1-oxoisoindolin-2-yl)piperidine-2,6-dione] | < 100 | > 75 | > 1000 | < 50 |

More lines, now with the values ahead:

| DC50 (SMARCA2) [nM] | Dmax (SMARCA2) [%] | DC50 (SMARCA4) [nM] | Dmax (SMARCA4) [%] | Structure (SMILES) |
| --- | --- | --- | --- | --- |
| < 100 | > 75 | > 1000 | < 50 | Cc1cc(S[C@@H]2C[C@@H]3CNc4nnc(-c5cc(F)cc(F)c5O)cc4N3C2)ncc1CN1CCN(c2ccc3c(c2)C(=O)N([C@H]2CCC(=O)NC2=O)C3)CC1 [Example 38, (S)-3-(6-(4-((6-(((6aR,8R)-2-(3,5-difluoro-2-hydroxyphenyl)-5,6,6a,7,8,9-hexahydropyrrolo[1′,2′:4,5]pyrazino[2,3-c]pyridazin-8-yl)thio)-4-methylpyridin-3-yl)methyl)piperazin-1-yl)-1-oxoisoindolin-2-yl)piperidine-2,6-dione] |
| < 100 | > 75 | 100 to 1000 | < 50 | Cc1nc(CN2CCN(c3ccc4c(c3)C(=O)N(C3CCC(=O)NC3=O)C4)CC2)cnc1O[C@H]1CN2c3cc(-c4cccc(F)c4O)nnc3NC[C@]2(C(F)F)C1 (stereo partly drawn) [Example 40, 3-(6-(4-((5-(((6aS,8R)-6a-(difluoromethyl)-2-(3-fluoro-2-hydroxyphenyl)-5,6,6a,7,8,9-hexahydropyrrolo[1′,2′:4,5]pyrazino[2,3-c]pyridazin-8-yl)oxy)-6-methylpyrazin-2-yl)methyl)piperazin-1-yl)-1-oxoisoindolin-2-yl)piperidine-2,6-dione] |
